SMILES strings stand for the structures.

The values that follow come from patent publication US11040028B2, “Penicinotam derivative, preparation method and use thereof” (OCEAN UNIVERSITY OF CHINA, priority 2017, dated 2021).

What all share (assay type): cell-based
Assay [1] has as its system BHK-21 cells. Briefly: Anti-fibrosis activity test: inhibition of BHK-21 cell proliferation (CCK-8). As to conditions: Mesocricetus auratus, BHK-21, 48 h, CCK-8, 48 hours after administration. The essentials:
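Cells plated 2×10^4 cells/mL; 24 h attach; compound dilutions, triplicate, 48 h, 37° C/5% CO2; CCK-8 2 h; A450; IR = (1−Ai/Ao)×100%; IC50 by curve fit.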

For assay [2], the system named is human lung fibroblasts HFL1. Nature of the assay: Anti-fibrosis activity test: inhibition of proliferation of human lung fibroblasts HFL1 (CCK-8). As to conditions: Homo sapiens, HFL1, 48 h, human lung fibroblasts HFL1, CCK-8, 48 hours. Summed up: (§1)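 Cells were seeded at 2×10^4 cells/mL and allowed to adhere for 24 h at 37° C, 5% CO2, then exposed to graded compound concentrations in triplicate for 48 h. CCK-8 was added for 2 h, A450 was read, and IC50 was derived from inhibition rate = (1−Ai/Ao)×100%.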

The subject of assay [3] is human hepatic stellate cells LX-2. Nature of the assay: Anti-fibrosis activity test: inhibition of proliferation of human hepatic stellate cells LX-2 (CCK-8). The conditions noted are these: Homo sapiens, 48 h, human hepatic stellate cells LX-2, CCK-8, 48 hours. The essentials:
as §1

Assay [4] concerns human fibrosarcoma cells HT-1080. Nature of the assay: Anti-fibrosis activity test: inhibition of proliferation of human fibrosarcoma cells HT-1080 (CCK-8). The conditions noted are these: Homo sapiens, HT-1080, 48 h, human fibrosarcoma cells HT-1080, CCK-8, 48 hours. Summed up:
as §1

For assay [5], the system named is human dermal fibroblasts CCC-ESF-1. Briefly: Anti-fibrosis activity test: inhibition of proliferation of human dermal fibroblasts CCC-ESF-1 (CCK-8). The conditions noted are these: Fibroblast; human dermal fibroblasts CCC-ESF-1, CCK-8, 48 hours. Summed up: as §1
Assay [6] deals with human embryonic lung fibroblast IMR-90. Nature of the assay: Anti-fibrosis activity test: inhibition of proliferation of human embryonic lung fibroblast IMR-90 (CCK-8). The conditions noted are these: human embryonic lung fibroblast IMR-90, CCK-8, 48 hours. Summed up:
as §1

For assay [7], the system named is cardiac fibroblast RAT-iCell-C002. Nature of the assay: Anti-fibrosis activity test: inhibition of proliferation of cardiac fibroblast RAT-iCell-C002 (CCK-8). The conditions noted are these: Cardiac fibroblast, 48 h, cardiac fibroblast RAT-iCell-C002, CCK-8, 48 hours. Summed up: as §1
For assay [8], the system named is NF-κB. Nature of the assay: Immunological activity test: inhibition of NF-κB activity. The conditions noted are these: initial concentration of 30 μM; a/b isomers given as first/second symbol; read-out: IC50 (μM), inhibitory activity against NF-κB. The essentials: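 Single-point testing at 30 μM preceded IC50 determination.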
Assay [9] has as its system mouse macrophages (RAW264.7). Briefly: Lipopolysaccharide-induced NO secretion in macrophages (Griess). The conditions noted are these: Mus musculus, RAW264.7, 24 h, RAW264.7, LPS 1 μg/ml, a/b isomers given as first/second symbol, read-out: IC50 (μM), inhibition of lipopolysaccharide-induced NO secretion in macrophages. Summed up: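 RAW264.7 cells in DMEM with 10% FBS were treated with test compounds at several concentrations, then stimulated with LPS (1 μg/ml) for 24 hours. Nitrite in the supernatant was measured by Griess reaction at 548 nm, and percent inhibition was calculated against blank-medium controls.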
(Griess reagent forms a coloured azo dye with nitrite.)

Take `O=C1c2c(nc3ccccc3c2OCc2ccc(Cl)cc2)-c2cccn21` [Compound 589b, 9-((4-chlorobenzyl)oxy)-10H-pyrrolizino[1,2-b]quinolin-10-one]: the IC50 (usually the concentration needed to halve the response being measured) in assay [1] is 0.05 to 5 mM; in assay [2], 0.05 to 5 mM; in assay [3], less than 0.05 mM; in [4], less than 0.05 mM; in assay [5], 0.05 to 5 mM; in assay [6] it was 0.05 to 5 mM. Moreover, the values for the IC50 in assay [7], in [8] and in [9] were 0.05 to 5 mM, 1 to 10 µM and 1 to 10 µM, respectively.
In the case of `N#Cc1ccc(Cn2c3c(c(=O)c4ccccc42)C(=O)n2cccc2-3)cc1` [Compound 590a, 4-((9,10-Dioxo-9H-pyrrolizino[1,2-b]quinolin-4(10H)-yl)methyl)benzonitrile], the IC50 in assay [1], in assay [2], in assay [3], in assay [4], in assay [5] and in [6] was 0.05 to 5 mM each time. In addition, the IC50 in assay [7] fell in the range of 0.05 to 5 mM; in [8], 1 to 10 µM; in assay [9], 1 to 10 µM.
As for `N#Cc1ccc(COc2c3c(nc4ccccc24)-c2cccn2C3=O)cc1` [Compound 590b, 4-(((10-oxo-10H-pyrrolizino[1,2-b]quinolin-9-yl)oxy)methyl)benzonitrile], the IC50 in assay [1], in assay [2], in assay [3], in assay [4], in assay [5] and in [6] was 0.05 to 5 mM each time. For the same molecule, the IC50 in assay [7] is 0.05 to 5 mM; in assay [8], 1 to 10 µM; in assay [9], 1 to 10 µM.
As for `O=C1c2c(n(Cc3ccc(C(F)(F)F)cc3)c3ccccc3c2=O)-c2cccn21` [Compound 591a, 4-(4-(Trifluoromethyl)benzyl)-9H-pyrrolizino[1,2-b]quinoline-9,10(4H)-dione], the IC50 in assay [1], in [2], in assay [3], in assay [4], in assay [5] and in assay [6] was 0.05 to 5 mM throughout. The IC50 lay within 0.05 to 5 mM in assay [7], 1 to 10 µM in assay [8] and 0.1 to 1 µM in assay [9].
As for `O=C1c2c(nc3ccccc3c2OCc2ccc(C(F)(F)F)cc2)-c2cccn21` [Compound 591b, 9-((4-(trifluoromethyl)benzyl)oxy)-10H-pyrrolizino[1,2-b]quinolin-10-one], the IC50 in assay [1], in [2], in assay [3], in assay [4], in assay [5] and in assay [6] was 0.05 to 5 mM throughout. Also, the IC50 fell in the range of 0.05 to 5 mM in assay [7], 0.1 to 1 µM in assay [8] and 1 to 10 µM in assay [9].
On to `O=C1c2c(n(Cc3ccc(OC(F)(F)F)cc3)c3ccccc3c2=O)-c2cccn21` [Compound 592a, 4-(4-(Trifluoromethoxy)benzyl)-9H-pyrrolizino[1,2-b]quinoline-9,10(4H)-dione], for which the IC50 in assay [1], in assay [2], in [3], in [4], in assay [5] and in assay [6] was 0.05 to 5 mM each time. Further, the IC50 in assay [7] was in the range of 0.05 to 5 mM; in [8] it was 1 to 10 µM; in assay [9], 1 to 10 µM.
As to `O=C1c2c(nc3ccccc3c2OCc2ccc(OC(F)(F)F)cc2)-c2cccn21` [Compound 592b, 9-((4-(trifluoromethoxy)benzyl)oxy)-10H-pyrrolizino[1,2-b]quinolin-10-one], the IC50 in assay [1], in assay [2], in assay [3], in [4], in assay [5] and in [6] was 0.05 to 5 mM each time. Further, the IC50 was 0.05 to 5 mM in assay [7], 1 to 10 µM in [8] and 1 to 10 µM in assay [9].
With `O=C1c2c(n(Cc3ccc([N+](=O)[O-])cc3)c3ccccc3c2=O)-c2cccn21` [Compound 593a, 4-(4-Nitrobenzyl)-9H-pyrrolizino[1,2-b]quinoline-9,10(4H)-dione], the IC50 in assay [1], in [2], in [3], in assay [4], in assay [5] and in assay [6] was 0.05 to 5 mM each time. Further, the IC50 is 0.05 to 5 mM in assay [7], 0.1 to 1 µM in [8] and 1 to 10 µM in [9].
For `O=C1c2c(nc3ccccc3c2OCc2ccc([N+](=O)[O-])cc2)-c2cccn21` [Compound 593b, 9-((4-nitrobenzyl)oxy)-10H-pyrrolizino[1,2-b]quinolin-10-one], the IC50 in assay [1], in [2], in assay [3], in [4], in [5] and in assay [6] was 0.05 to 5 mM throughout. Besides, the values for the IC50 in assay [7], in [8] and in assay [9] were 0.05 to 5 mM, 1 to 10 µM and 1 to 10 µM, respectively.
As for `O=C1c2c(n(Cc3ccc(Br)cc3)c3ccccc3c2=O)-c2cccn21` [Compound 594a, 4-(4-Bromobenzyl)-9H-pyrrolizino[1,2-b]quinoline-9,10(4H)-dione], the IC50 in [1] was less than 0.05 mM; in assay [2], 0.05 to 5 mM; in assay [3], 0.05 to 5 mM; in assay [4], 0.05 to 5 mM; in assay [5], 0.05 to 5 mM; in [6], 0.05 to 5 mM. The figures for the IC50 in assay [7], in assay [8] and in [9] were 0.05 to 5 mM, 0.1 to 1 µM and 1 to 10 µM, respectively.
Turning to `O=C1c2c(nc3ccccc3c2OCc2ccc(Br)cc2)-c2cccn21` [Compound 594b, 9-((4-bromobenzyl)oxy)-10H-pyrrolizino[1,2-b]quinolin-10-one], the IC50 in assay [1], in [2], in assay [3], in assay [4], in [5] and in assay [6] was 0.05 to 5 mM throughout. In addition, the IC50 in [7] was 0.05 to 5 mM; in [8] it was 1 to 10 µM; in [9], 1 to 10 µM.
For `O=C1c2c(n(Cc3cccc(F)c3)c3ccccc3c2=O)-c2cccn21` [Compound 595a, 4-(3-Fluorobenzyl)-9H-pyrrolizino[1,2-b]quinoline-9,10(4H)-dione], the IC50 in assay [1] was 0.05 to 5 mM; in [2], 0.05 to 5 mM; in assay [3] it was 0.05 to 5 mM; in [4], 0.05 to 5 mM; in assay [5] it was less than 0.05 mM; in assay [6], 0.05 to 5 mM. Further, the IC50 in assay [7] was 0.05 to 5 mM; in assay [8] it was 1 to 10 µM; in assay [9], 0.1 to 1 µM.
With `O=C1c2c(nc3ccccc3c2OCc2cccc(F)c2)-c2cccn21` [Compound 595b, 9-((3-fluorobenzyl)oxy)-10H-pyrrolizino[1,2-b]quinolin-10-one], the IC50 in assay [1], in assay [2], in assay [3], in assay [4], in [5] and in [6] was 0.05 to 5 mM throughout. The IC50 lay in the range of 0.05 to 5 mM in assay [7], 1 to 10 µM in assay [8] and 0.1 to 1 µM in assay [9].
As to `O=C1c2c(n(Cc3cccc(Cl)c3)c3ccccc3c2=O)-c2cccn21` [Compound 596a, 4-(3-Chlorobenzyl)-9H-pyrrolizino[1,2-b]quinoline-9,10(4H)-dione], the IC50 in [1], in [2], in assay [3], in assay [4], in [5] and in assay [6] was 0.05 to 5 mM in each case. Besides, the IC50 in [7] was 0.05 to 5 mM; in [8], 1 to 10 µM; in assay [9] it was 1 to 10 µM.
For the molecule `O=C1c2c(nc3ccccc3c2OCc2cccc(Cl)c2)-c2cccn21` [Compound 596b, 9-((3-chlorobenzyl)oxy)-10H-pyrrolizino[1,2-b]quinolin-10-one], the IC50 in assay [1], in assay [2], in assay [3], in assay [4], in assay [5] and in assay [6] was 0.05 to 5 mM throughout. Also, the IC50 in assay [7] lay within 0.05 to 5 mM; in assay [8], 1 to 10 µM; in assay [9] it was 1 to 10 µM.
